According to patent US20230348486A1, “NEAR-INFRARED EMITTING PORPHYRIN COMPOUND AND PREPARATION METHOD AND USE THEREOF” (PEKING UNIVERSITY, priority 2020, published 2023):

Tests used:
[1] = tested on: HeLa human cervical cancer cells; assay: Cytophototoxicity test (CCK-8) under white light; format: cell-based; details: 24 h incubation in the dark, white light 400-700 nm, about 6.5 mW/cm^2, 30 minutes, CCK-8 after 24 hours, read-out: median lethal concentration IC50
Description: (§1) The cells used in the experiment included HeLa human cervical cancer cells, HepG2 human liver cancer cells, A375 human malignant melanoma cells, MCF7 human breast cancer cells, and HCT 116 human colon cancer cells. The cells were cultured in DMEM complete medium supplemented with 10% inactivated fetal bovine serum and 1% penicillin-streptomycin at 37° C. under the atmosphere of 5% carbon dioxide.
(§2) After trypsinized, the subculture HeLa cells were dispersed in the medium at appropriate concentration. Then, the dispersed HeLa cells were seeded into a poly-D-lysine modified flat-bottom 96-well plate, so that the amount of medium and the number of cells in each well were 200 µL and about 10^4, respectively, except a group of wells containing medium free of cells for blank control. After culturing the cells in the dark for 24 hours, the medium was removed, and 100 µL of fresh medium and 100 µL of pre-prepared medium solution containing molecule 6 synthesised in Example 6 were added, and then the sample was diluted to a gradient concentration of 0.1-5 µM. After culturing in the dark for another 24 hours, the medium was removed, and each well was rinsed 3 times with PBS (pH=7.4). 100µL of PBS buffer was added to each well, and irradiated
(§3) by white light (400-700 nm) with the same light intensity (about 6.5 mW/cm^2) under bromo-tungsten lamp for 30 minutes. The PBS in each well was removed and replaced with 200 µL of fresh medium to continue culturing for 24 hours. After that, the medium was removed and the wells were rinsed 3 times with PBS. Then 100 µL of 10% CCK-8 reagent (Cell Counting Kit-8) formulated with medium was added into each well to culture the cells for 2 hours. Meanwhile, 2-(2-methoxy-4-nitrophenyl)-3-(4-nitrophenyl)-5-(2,4-disulfonic acid benzene)-2H-[…] monosodium salt (WST-8) can be reduced by living cells together with electronic coupling reagents to yield a yellow product of formazan, accordingly changing the absorbance of the solution at 450 nm, and there was a direct proportional relationship between the change level and the number of living cells. The absorbance change of each well at 450 nm was measued by a microplate reader, and the cell survival rates at various culture concentrations were calculated according to the following equation: […]
(§4) wherein CV refers to the cell survival rate; As, Ac and Ab refer to the absorbance of the cells cultured with the compound, the absorbance of the cells cultured without the compound and the absorbance of the blank control, respectively.
(§5) The median lethal concentrations IC50 of molecule 6 in different cell lines were calculated according to the cell survival rates at various culture concentrations, and the results were shown as follows: […]

[2] = tested on: HepG2 human liver cancer cells; assay: Cytophototoxicity test (CCK-8) under white light; format: cell-based; details: 0.5 h, white light 400-700 nm, about 6.5 mW/cm^2, 30 minutes, read-out: median lethal concentration IC50
Description: as §1, §2, §3, §4, §5

[3] = tested on: HCT 116 human colon cancer cells; assay: Cytophototoxicity test (CCK-8) under white light; format: cell-based; details: HCT-116, 0.5 h, HCT116, white light 400-700 nm, about 6.5 mW/cm^2, 30 minutes, read-out: median lethal concentration IC50
Description: as §1, §2, §3, §4, §5

[4] = tested on: A375 human malignant melanoma cells; assay: Cytophototoxicity test (CCK-8) under white light; format: cell-based; details: A-375, 0.5 h, white light 400-700 nm, about 6.5 mW/cm^2, 30 minutes, read-out: median lethal concentration IC50
Description: as §1, §2, §3, §4, §5

[5] = tested on: MCF7 human breast cancer cells; assay: Cytophototoxicity test (CCK-8) under white light; format: cell-based; details: 0.5 h, white light 400-700 nm, about 6.5 mW/cm^2, 30 minutes, read-out: median lethal concentration IC50
Description: as §1, §2, §3, §4, §5

[6] = tested on: A375 human malignant melanoma cells; assay: Animal test of photodynamic therapy, subcutaneous tumor model; format: in vivo, BALB/C nude mice; details: skin application, 10 mg·kg^-1, light 400-700 nm, 2 weeks, FIG. 2
Description: BALB/C nude mice, which were 4-5 weeks old, females, 16-25 grams, were used in the in vivo experiment. Each mouse was inoculated with 100ul (5×10^6) of A375 human malignant melanoma cells subcutaneously in the right scapula, and the experiment was carried out two weeks later.
The nude mice were randomly individed to control group and skin application group with 6 mice in each group. The control group was only irradiated with light (tungsten lamp, 400-700 nm, 6.5 mW/cm^2) without administration, and the 1 mM/20 ul aqueous solution of molecule 6 was administrated to the skin application group in an amount of 10 mg·kg^-1 based on the weights of the nude mice. After administrated, the animals were protected from light for 24 hours, and then were each individually irradiated on their tumor sites for 30 minutes a day for consecutive 3 days. The nude mice were not protected from light after the treatment, and were took care in a breeding cage to observe the side effects such as skin phototoxicity appeared on each group of nude mice. After irradiated, the weights of nude mice were measured and their tumor volume were determined with vernier calipers every two days. After 2 weeks of treatment, the lumps were peeled off and weighed.

Question: Which results are given for `C[N+](C)(C)c1c(F)c(F)c(-c2c3nc(c(-c4c(F)c(F)c([N+](C)(C)C)c(F)c4F)c4ccc([nH]4)c4c(nc5oc6c(F)c([N+](C)(C)C)c(F)c(F)c6c5c5ccc2[nH]5)oc2c(F)c([N+](C)(C)C)c(F)c(F)c24)C=C3)c(F)c1F` [molecule 6]?
Answer: IC50 [1]: 2.69 ± 0.1 µM; IC50 [2]: 0.8 ± 0.1 µM; IC50 [3]: 1.52 ± 0.2 µM; IC50 [4]: 4.75 ± 0.5 µM; IC50 [5]: 0.85 ± 0.1 µM; change of tumor size (growth of subcutaneous tumors) ([6]; 6.5 mW/cm^2, 30 minutes a day for 3 days): effectively inhibit the growth of subcutaneous tumors; change of weight of the mice ([6]; 30 minutes a day for 3 days): no significant decrease
